Reference: patent publication US5028427A, “"Cephalosporin" compounds” (Beecham Group p.l.c., priority 1987, dated 1991)
Converted amounts (≈) assume the structure as drawn.

Key:
Assay in all cases: MIC by serial dilution in nutrient agar
Format in all cases: cell-based
[1] = tested on: Enterobacter cloacae P99
[2] = tested on: Serratia marcescens US32; conditions: Serratia marcescens US 32, nutrient agar (Oxoid), 10^4 colony forming units, overnight at 37° C.
[3] = tested on: Serratia marcescens HCN 3956; conditions: HCN3956, nutrient agar (Oxoid), 10^4 colony forming units, overnight at 37° C.
[4] = tested on: Pseudomonas aeruginosa NCTC 10662; conditions: NCTC10662, nutrient agar (Oxoid), 10^4 colony forming units, overnight at 37° C.
[5] = tested on: Staphylococcus aureus Oxford; conditions: nutrient agar (Oxoid), 10^4 colony forming units, overnight at 37° C.

Structure (SMILES) | MIC [1] [µg/mL] | MIC [2] [µg/mL] | MIC [3] [µg/mL] | MIC [4] [µg/mL] | MIC [5] [µg/mL]
CCN1CCN(C(=O)NC(C(=O)NC2(NC=O)C(=O)N3C(C(=O)[O-])=C(C[n+]4ccccc4)CSC32)c2ccc(OC(C)=O)c(OC(C)=O)c2)C(=O)C1=O [Compound A, 7β-[D-2-(3,4-diacetoxyphenyl)-2-[(4-ethyl-2,3-dioxopiperazin-1-yl)carbonylamino]acetamido]-7α-formamido-3-(pyridinium)methyl-ceph-3-em-4-carboxylate] | 8 (≈ 10.6 µM) | 0.5 (≈ 0.665 µM) | 16 (≈ 21.3 µM) | 2 (≈ 2.66 µM) | 16 (≈ 21.3 µM)
CCN1CCN(C(=O)NC(C(=O)NC2(NC=O)C(=O)N3C(C(=O)[O-])=C(C[n+]4ccccc4)CSC32)c2ccc(O)c(O)c2)C(=O)C1=O [Example 1, 7β-[D-2-(3,4-Dihydroxyphenyl)-2-[(4-ethyl-2,3-dioxopiperazin-1-yl)carbonylamino]acetamido]-7α-formamido-3-(pyridinium)methyl-ceph-3-em-4-carboxylate] | 2 (≈ 3 µM) | 0.12 (≈ 0.18 µM) | 2 (≈ 3 µM) | 0.5 (≈ 0.749 µM) | 8 (≈ 12 µM)
